system: P. falciparum 3D7 growth, pLDH absorbance; experiment: P. falciparum 3D7 growth inhibition, dose response, strain 3D7 (AID 2305)

Structure (SMILES)	IC50 [nM]
Cc1cc(NCCc2ccccc2)nc(/N=C(\N)Nc2ccc(Cl)cc2)n1	230
Nc1cc(-c2ccc3c(N)nccc3c2)ccc1Cl	1540
O=C(Nc1nc(-c2ccccn2)cc2ccccc12)c1cccc(Cl)c1	750
CCCCN(CCCC)C(=NCCCCCCN=C(NC(N)=NCc1ccc(Cl)c(Cl)c1)N(CCCC)CCCC)NC(N)=NCc1ccc(Cl)c(Cl)c1	400
Cc1ccc(-n2cc(CNCCc3ncc(C)[nH]3)c(-c3ccc(F)cc3)n2)cc1	1510
CC(C)C1C(O)=C(c2ccc3ccccc3c2)C(=O)N1Cc1cccc(F)c1 (centres undefined)	810
O=C(/C=C/c1ccc(Cl)c(Cl)c1)NCCCCCN1CCC(NC(=O)Nc2ccc(Cl)cc2Cl)CC1	640
OC1CCCN(Cc2ccc(-c3ccc(-c4nc5ccccc5[nH]4)cc3)cc2)C1 (centres undefined)	840
CC(C)(C)OC(=O)[C@H](CC(N)=O)NC(=O)c1ccc(-c2ccc(-c3nc4ccc(C(F)(F)F)cc4[nH]3)s2)cc1	270
O=S(=O)(NC1CCC(CN2CCC(c3c[nH]c4ccccc34)CC2)CC1)c1ccc(Cl)c(Cl)c1 (centres undefined)	820
Cc1cccc(CNc2nc(C)cc(N[C@@H](CC(C)C)C(=O)NCc3cccc(F)c3)n2)c1	1180
Cc1cc(N2CCCC2)nc(Nc2ccc(NC(=O)COc3ccccc3)cc2)n1	650
Cc1noc(C)c1-c1cccc(CNCc2ccc(-c3ccc(-c4nc5ccc(C(F)(F)F)cc5[nH]4)s3)cc2)c1	180
CCOc1ccccc1NC(=O)Nc1ccc2c(c1)CCN(C1CCC1)CC2	1110
O=C(C=Cc1ccc(C(=O)Nc2ccc(C3=NCCN3)cc2)cc1)Nc1ccc(C2=NCCN2)cc1	30
NCc1cccc(-c2ccccc2CNC2CCN(Cc3ccccc3)CC2)c1	770
c1cncc(CCNCc2ccc(-c3cccc(-c4nc5ccccc5[nH]4)c3)cc2)c1	160
O=C(N[C@@H](CC1CCCCC1)C(=O)NCCN1CCCC1)c1ccc(O)c(-c2cccc(C(F)(F)F)c2)c1	760
CCNc1cc(C(=O)N[C@@H](Cc2ccccc2)[C@H](O)CN[C@@H]2CCc3ccccc32)cc(N2CCCCS2(=O)=O)c1	550
CCN=C1NC2=C(CC(C(C)(C)C)CC2)C2(CCC(C(C)(C)C)CC2)S1 (centres undefined)	830

Structure (SMILES)	IC50 [nM]
CCc1cccc(-n2c(=O)c3cccnc3n2CC(=O)NCc2ccccc2Cl)c1	740
COc1nc(-n2ccc(=N)cc2)nc2ccccc12	1060
Oc1ccc(OCc2ccccn2)cc1	980
Cc1cc(NN=Cc2ccccc2F)c2cc(C(F)(F)F)ccc2n1	430
CC1=C(C(=O)Nc2ccccc2)C(c2ccc([N+](=O)[O-])cc2)n2ncc(C(=O)Nc3ccccc3)c2N1 (centres undefined)	1240
FC(F)(F)Oc1ccc(Nc2cc(-c3ccncc3)nc(-c3cccnc3)n2)cc1	670
CCn1ncc2c(NC3CCOCC3)c(CNC(=O)c3ccnn3C)c(C)nc21	530
CC(=O)Nc1ncc(C(=O)Nc2ccc(-c3cccc(-c4nc5ccc(C(F)(F)F)cc5[nH]4)c3)cc2)s1	260
CCCCCCCCCc1c(C)[nH]c2ccccc2c1=O	160
FC(F)(F)c1ccc2nc(-c3ccc(-c4ccc(CNCc5cnn(-c6ccccc6)n5)cc4)cc3)[nH]c2c1	430
COc1ccc(-c2nc(NC(=O)CS(=O)(=O)c3ccccc3)sc2C)cc1	600
CN1CCc2cc(NC(=O)c3cc4ccccc4s3)cc(-c3ccccc3)c2CC1	890
COc1ccc(C(=O)CC(=O)c2ccc(OC)cc2OC)c(OC)c1	300
O=C(/C=C/c1ccc(Cl)c(Cl)c1)NCCCCCN1CCCN(C(=O)Nc2ccc(C(F)(F)F)cc2)CC1	690
O=C(/C=C/c1cc(C(F)(F)F)ccc1F)NCCCCCN1CCC(c2c[nH]c3ccccc23)CC1	1130
O=C(CSc1nn(-c2ccccc2)c(=S)s1)c1c[nH]c2ccccc12	1090
CCOc1cccc(C(=O)Nc2cccc(CN3CCCN(Cc4cccc(O)c4)CC3)c2)c1	1090
O=C(Nc1cccnc1)c1cc(-c2cccnc2)nc2ccc(Cl)cc12	1060
Cc1[nH]c2ccccc2c1C1=CCN(CCCCC23CCCc4cccc(c42)NC3=O)CC1 (centres undefined)	230

Source: PubChem BioAssay AID2305 (GlaxoSmithKline (GSK), 2010)
